Measurements from paper PMC7324617, “Selection and identification of a novel bone-targeting peptide for biomedical imaging of bone” (Scientific Reports, 2020).
“Also recorded” adds a separate entry of the source. Where no end group is shown, it is not given here.

Legend:
Saos-2 cells = test: Cytotoxicity assay (WST-1) in Saos-2 cells; format: cell-based; conditions: 1 nM to 100 μM, 24 h, 48 h and 72 h, WST-1, triplicates
Method: The biocompatibility of HA-pep3 is important for assessing the feasibility of its in vivo application. Therefore, we performed HA-pep3 cytotoxicity assessment in osteoblastic Saos-2 osteogenic cells for 24 h, 48 h and 72 h (Fig. 6a and Figure S3). The cell viability was measured using various concentrations of HA-pep3 ranging from 1 nM to 100 μM. […] Next, we analyzed HA-pep3 in vivo application feasibility. We used Cy5.5 dye with near-infrared wavelength for in vivo imaging, to minimize tissue adsorption. After Cy5.5 dye labeling, scrambled peptide and HA-pep3 were injected into the tail vein of nude mice. […] The fluorescence intensity in bone was about 3.32 folds higher for Cy5.5-HA-pep3 than for a scrambled sequence (Fig. 6d).
Saos-2 osteosarcoma osteogenic primary cell line was purchased from the Korean cell line bank. Cells were cultured in […] medium with L-glutamine (300 mg/L), 25 mM HEPES, and 25 mM NaHCO3 supplemented with 10% heat-inactivated fetal bovine serum (FBS), 100 U/mL penicillin, and 100 μg/mL streptomycin. The cell lines were cultured at 37 °C and up to 5% CO2 in humidified atmosphere. All reagents and cell culture media were purchased from the WELGENE Company, South Korea. HA-pep3 cytotoxicity was examined using WST-1 assay. […] Finally, the absorbance was measured at 450 nm using a microplate spectrophotometer (Tecan Infinite 200). […]

[1] = Blood analysis for in vivo clearance; design: species or system mice; conditions: blood samples 10 μL at 1, 3, 6 and 12 h after intravenous injection of Cy5.5-HA pep3; fluorescence (IVIS)
From the text: We used X-ray function of in vivo imaging machine, IVIS Lumina XRMS and performed X-ray imaging of the mice with Cy5.5-HA pep3. With x-ray images, we could observe the high fluorescence intensity at spine (Figure S5a). In additions, we compared its biodistribution in vivo to our Cy5.5-HA pep3 and E7 positive peptide after intravenous injection. […] In addition, we performed blood analysis to determine clearance of our peptide in vivo (Figure S6).
All animal studies were approved by the Institutional Review Board of the Catholic University of Korea (approval No. CUMC-2019-0003-01). BALB/c nude mice (4 weeks old, OrientBio, Seongnam city, Korea) and wild type C3H/HeN mice were used for in vivo imaging. Cy5.5-scramble peptide or Cy5.5-HAp peptide (5 mg/kg of peptide in 100 µL physiological saline, n = 3) were administered to the mice by a tail vein injection. […] All images were analyzed with Living Image 4.5 software (PerkinElmer Inc., Massachusetts, USA). […] The fluorescence intensity of […] in samples was measured by IVIS Lumina XRMS.
Figure S6. […] (a) Time-dependent fluorescence images of blood sample obtained from mice tail at 1, 2, 3, 6 and 12h after intravenous injection of Cy5.5-HA pep3. (b) Average fluorescence intensity graph of the blood samples in (a).

clearance from blood [1]: disappeared in blood after 12 h
Sequence: KNFQSRSH [HA-pep3]
cytotoxicity (cell viability) (Saos-2 cells): no cytotoxicity; also recorded: did not show any cytotoxicity up to 100 μM
